As usually defined, the IC50 is the concentration that gives 50% inhibition.

Structures are written as SMILES.

For this assay, the target named is T1, human IDO1 (Homo sapiens, UniProt P14902).
T1 construct: expressed in transfected cells
Briefly: IDO inhibition assay in human IDO1/HEK293 cells (IDO1 HEK Human). It is filed as cell-based. To be noted: HEK293 cells stably expressing human IDO1; 20 hours incubation; absorbance at 490 nm after Ehrlich reagent. In outline:
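Kynurenine output of stably IDO1-transfected HEK293 cells was measured by absorbance at 490 nm after mixing supernatant with 0.2% Ehrlich reagent, following TCA stop (0.2% final, 50° C., 30 min). Cells were incubated 20 hours with compound. Inhibition was scaled between DMSO and 500 nM reference standard.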

T1 sequence (P14902 whole entry): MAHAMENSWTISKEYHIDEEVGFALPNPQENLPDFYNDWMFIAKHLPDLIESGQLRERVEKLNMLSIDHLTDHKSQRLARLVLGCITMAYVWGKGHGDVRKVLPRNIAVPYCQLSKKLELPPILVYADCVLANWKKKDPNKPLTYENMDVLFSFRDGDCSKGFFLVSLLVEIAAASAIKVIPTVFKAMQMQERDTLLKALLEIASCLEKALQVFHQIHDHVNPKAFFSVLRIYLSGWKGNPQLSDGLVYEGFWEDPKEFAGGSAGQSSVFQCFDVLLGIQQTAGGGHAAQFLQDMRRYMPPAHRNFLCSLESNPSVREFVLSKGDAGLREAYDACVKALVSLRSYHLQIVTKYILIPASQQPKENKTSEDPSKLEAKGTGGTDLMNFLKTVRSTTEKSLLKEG

For the compound `Cc1ccc(NC(=O)Nc2cc(-c3ccccc3-c3nnn[nH]3)cc3c2OC(C)(C)C3c2ccccc2)cc1` (racemic) [Example 123, (±)-1-(5-(2-(1H-Tetrazol-5-yl)phenyl)-2,2-dimethyl-3-phenyl-2,3-dihydrobenzofuran-7-yl)-3-(p-tolyl)urea], the IC50 turned out to be 6.3 nM.
With `Cc1ccc(CC(=O)Nc2cc(-c3ccccc3-c3nnn[nH]3)cc3c2OCCCC3C2CC2)cc1` (single isomer, unassigned) [37 (En. 1), N-(7-(2-(1H-tetrazol-5-yl)phenyl)-5-cyclopropyl-2,3,4,5-tetrahydrobenzo[b]oxepin-9-yl)-2-(p-tolyl)acetamide], the IC50 is 221 nM.
The figure for `C=C[C@H]1Oc2c(NC(=O)Nc3ccc(C)cc3)cc(-c3ccccc3-c3nnn[nH]3)cc2[C@@H]1CCC(F)(F)F` (single isomer, unassigned) [Example 100, 1-((trans)-5-(2-(1H-tetrazol-5-yl)phenyl)-3-(3,3,3-trifluoropropyl)-2-vinyl-2,3-dihydrobenzofuran-7-yl)-3-(p-tolyl)urea] is 21 nM.
Next, `Fc1cccc2oc(Nc3cc(-c4ccccc4-c4nnn[nH]4)cc4c3OCCCC4C3CC3)nc12` (stereo not drawn) [Example 28, N-(7-(2-(1H-tetrazol-5-yl)phenyl)-5-cyclopropyl-2,3,4,5-tetrahydrobenzo[b]oxepin-9-yl)-4-fluorobenzo[d]oxazol-2-amine]: 2.6 nM.
Next, `CC1CCOc2c(Nc3nc4ccccc4[nH]3)cc(-c3ccccc3-c3nnn[nH]3)cc2C1c1ccccc1` (single isomer, unassigned) [Example 52, N-(7-(2-(1H-tetrazol-5-yl)phenyl)-4-methyl-5-phenyl-2,3,4,5-tetrahydrobenzo[b]oxepin-9-yl)-1H-benzo[d]imidazol-2-amine]: 499 nM; `Cc1ccc(NC(=O)Nc2cc(-c3ccccc3C(=O)O)cc3c2OCCCC3c2ccccc2)cc1` (single isomer, unassigned) [Example 8-2, 2-(5-phenyl-9-(3-(p-tolyl)ureido)-2,3,4,5-tetrahydrobenzo[b]oxepin-7-yl)benzoic acid]: 970 nM; `Fc1cnc(Nc2cc(-c3ccccc3-c3nnn[nH]3)cc3c2OCCCC3c2ccccc2)nc1` (single isomer, unassigned) [63 (En. 1), N-(7-(2-(1H-tetrazol-5-yl)phenyl)-5-phenyl-2,3,4,5-tetrahydrobenzo[b]oxepin-9-yl)-5-fluoropyrimidin-2-amine]: 539 nM.
In turn, `COC(=O)c1c(OC)cccc1-c1cc(NC(=O)Nc2ccc(C)cc2)c2c(c1)C(c1ccccc1)CCCO2` (stereo not drawn) [Example 65, methyl 2-methoxy-6-(5-phenyl-9-(3-(p-tolyl)ureido)-2,3,4,5-tetrahydrobenzo[b]oxepin-7-yl)benzoate] yielded an IC50 of 381 nM.
The figure for `Cc1ccc(CC(=O)Nc2cc(-c3ccccc3-c3nnn[nH]3)cc3c2OCCCC3C2CC2)c(F)c1` (single isomer, unassigned) [39 (En. 2)] is 32.6 nM; for `Cc1ccc(NC(=O)Nc2cc(-c3ccccc3-c3nnn[nH]3)cc3c2OCCCC3C)cc1` (stereo not drawn) [Example 31, 1-(7-(2-(1H-tetrazol-5-yl)phenyl)-5-methyl-2,3,4,5-tetrahydrobenzo[b]oxepin-9-yl)-3-(p-tolyl)urea] it is 70.8 nM.
Compound `Cc1ccc(CC(=O)Nc2cc(-c3ccccc3-c3nnn[nH]3)cc3c2OCCCC3C(C)C)cc1` (single isomer, unassigned) [25 (En. 2), N-(7-(2-(1H-tetrazol-5-yl)phenyl)-5-isopropyl-2,3,4,5-tetrahydrobenzo[b]oxepin-9-yl)-2-(p-tolyl)acetamide] returned an IC50 of 71.4 nM. This IC50 and that of the compound before are within 1.5-fold of each other.
As for `Cc1cnc(Nc2cc(-c3ccccc3-c3nnn[nH]3)cc3c2OCCCC3c2ccccc2)nc1` (racemic) [55 (Rac), N-(7-(2-(1H-tetrazol-5-yl)phenyl)-5-phenyl-2,3,4,5-tetrahydrobenzo[b]oxepin-9-yl)-5-methylpyrimidin-2-amine], the IC50 was determined as 155 nM.
The figure for `O=C(Nc1ccc(F)cc1F)Nc1cc(-c2ccccc2-c2nnn[nH]2)cc2c1OCCCC2c1ccccc1` (stereo not drawn) [Example 21, 1-(7-(2-(1H-tetrazol-5-yl)phenyl)-5-phenyl-2,3,4,5-tetrahydrobenzo[b]oxepin-9-yl)-3-(2,4-difluorophenyl)urea] is 177 nM.
The figure for `Cc1ccc(-c2nnn[nH]2)c(-c2cc(Nc3ccc(Cl)cc3F)c3c(c2)C(c2ccccc2)CCCO3)c1` (single isomer, unassigned) [Example 75, N-(4-chloro-2-fluorophenyl)-7-(5-methyl-2-(1H-tetrazol-5-yl)phenyl)-5-phenyl-2,3,4,5-tetrahydrobenzo[b]oxepin-9-amine] is 18.5 nM.
The figure for `Cc1cnc(Nc2cc(-c3ccccc3-c3nnn[nH]3)cc3c2OCCCC3c2ccccc2)nc1` (single isomer, unassigned) [55 (En. 1), N-(7-(2-(1H-tetrazol-5-yl)phenyl)-5-phenyl-2,3,4,5-tetrahydrobenzo[b]oxepin-9-yl)-5-methylpyrimidin-2-amine] is 1400 nM.
On to `O=C(Nc1cc(-c2ccccc2-c2nnn[nH]2)cc2c1OCCCC2c1ccccc1)NC1CC1` (single isomer, unassigned) [23 (En. 1), 1-(7-(2-(1H-tetrazol-5-yl)phenyl)-5-phenyl-2,3,4,5-tetrahydrobenzo[b]oxepin-9-yl)-3-cyclopropylurea], for which the IC50 amounted to 3500 nM.
For the compound `Cc1ccc(NC(=O)Nc2cc(-c3ccccc3-c3nnn[nH]3)cc3c2OCCC3c2ccccc2)cc1` (racemic) [Example 132, (+/−)-1-(6-(2-(2H-tetrazol-5-yl)phenyl)-4-phenylchroman-8-yl)-3-(p-tolyl)urea], the IC50 was 21.2 nM.
Next, `c1ccc(C2CCCOc3c(Nc4ccc5ccccc5n4)cc(-c4ccccc4-c4nnn[nH]4)cc32)cc1` (single isomer, unassigned) [Example 83, N-(7-(2-(1H-tetrazol-5-yl)phenyl)-5-phenyl-2,3,4,5-tetrahydrobenzo[b]oxepin-9-yl) quinolin-2-amine]: 17.4 nM.
The figure for `Cc1ccc(NC(=O)Nc2cc(-c3ccccc3-c3nnn[nH]3)cc3c2OCC(O)C(O)C3c2ccccc2)cc1` (single isomer, unassigned) [9 (En. 2), 1-(7-(2-(1H-tetrazol-5-yl)phenyl)-3,4-dihydroxy-5-phenyl-2,3,4,5-tetrahydrobenzo[b]oxepin-9-yl)-3-(p-tolyl)urea] is 579 nM.
The figure for `CCC1Oc2c(NC(=O)Nc3ccc(C)cc3)cc(-c3ccccc3-c3nnn[nH]3)cc2C1CCC(F)(F)F` (racemic) [Example 102] is 13 nM.
`O=C(Nc1ccc(C2CC2)cc1F)Nc1cc(-c2ccccc2-c2nnn[nH]2)cc2c1OCCCC2c1ccccc1` (stereo not drawn) [Example 6, 1-(7-(2-(1H-tetrazol-5-yl)phenyl)-5-phenyl-2,3,4,5-tetrahydrobenzo[b]oxepin-9-yl)-3-(4-cyclopropyl-2-fluorophenyl)urea] gave an IC50 of 70 nM.
The figure for `C=C[C@@H]1Oc2c(NC(=O)Nc3ccc(C)cc3)cc(-c3ccccc3-c3nn[nH]n3)cc2[C@@H]1c1ccccc1` (racemic) [Example 86, (+/−)-1-((cis)-5-(2-(1H-tetrazol-5-yl)phenyl)-3-phenyl-2-vinyl-2,3-dihydrobenzofuran-7-yl)-3-(p-tolyl)urea] is 12 nM; for `Cc1ccc(-c2noc(Nc3cc(-c4ccccc4-c4nnn[nH]4)cc4c3OCCCC4c3ccccc3)n2)cc1` (single isomer, unassigned) [26 (En. 1), N-(7-(2-(1H-tetrazol-5-yl)phenyl)-5-phenyl-2,3,4,5-tetrahydrobenzo[b]oxepin-9-yl)-3-(p-tolyl)-1,2,4-oxadiazol-5-amine] it is 2560 nM.
Next, `Cc1ccc(CC(=O)Nc2cc(-c3ccccc3-c3nnn[nH]3)cc3c2OCCC(C)C3c2ccccc2)cc1` (single isomer, unassigned) [Example 48, N-(7-(2-(1H-tetrazol-5-yl)phenyl)-4-methyl-5-phenyl-2,3,4,5-tetrahydrobenzo[b]oxepin-9-yl)-2-(p-tolyl)acetamide]: 12.5 nM; `CC1(C)Oc2c(NC(=O)Nc3ccccc3F)cc(-c3ccccc3C(=O)O)cc2C1c1ccccc1` (racemic) [Example 126, (±)-2-(7-(3-(2-Fluorophenyl)ureido)-2,2-dimethyl-3-phenyl-2,3-dihydrobenzofuran-5-yl)benzoic acid]: 310 nM; `C=C[C@H]1Oc2c(NC(=O)Nc3ccc(C)cc3)cc(-c3ccccc3-c3nnn[nH]3)cc2[C@@H]1CCC(F)(F)F` (single isomer, unassigned) [Example 130, 1-((trans)-5-(2-(1H-tetrazol-5-yl)phenyl)-3-(3,3,3-trifluoropropyl)-2-vinyl-2,3-dihydrobenzofuran-7-yl)-3-(p-tolyl)urea]: 40 nM.
`Cc1ccc(CC(=O)Nc2cc(-c3ccccc3-c3nnn[nH]3)cc3c2OCCCC3C)cc1` (stereo not drawn) [Example 32, N-(7-(2-(1H-tetrazol-5-yl)phenyl)-5-methyl-2,3,4,5-tetrahydrobenzo[b]oxepin-9-yl)-2-(p-tolyl)acetamide] displayed an IC50 of 419 nM.
The figure for `Cc1ccc(NC(=O)Nc2cc(-c3ccccc3-c3nnn[nH]3)cc3c2OC(C(C)C)C3c2ccccc2)cc1` (racemic) [Example 103] is 11 nM; for `C=C(C)C1Oc2c(NC(=O)Nc3ccc(C)cc3)cc(-c3ccc(OC)c(C(=O)O)c3)cc2C1c1ccccc1` (racemic) [Example 97] it is 1800 nM.
The figure for `Cc1ccc(-c2nnn[nH]2)c(-c2cc(Nc3ccc(OC(F)F)cc3)c3c(c2)C(c2ccccc2)CCCO3)c1` (single isomer, unassigned) [Example 79, N-(4-(difluoromethoxy)phenyl)-7-(5-methyl-2-(1H-tetrazol-5-yl)phenyl)-5-phenyl-2,3,4,5-tetrahydrobenzo[b]oxepin-9-amine] is 33.5 nM.

The record behind these values is US12145927B2 (BRISTOL-MYERS SQUIBB COMPANY, priority 2018, dated 2024).
